“Also recorded” adds a separate entry of the source. Like-named read-outs stand apart in the source and are kept apart here.
How the values were obtained:
[1] = tested on: P. aeruginosa PA103; design: species or system porcine; conditions: 48 hours
[2] = tested on: HCE-T cells infected with exoU⁺ clinical P. aeruginosa keratitis isolates; experiment: CellDiscoverer 7 high-content screen, exoU+ isolates; format: cell-based, human; conditions: 4.5 h post-infection; Bis 10 µM, Zp 2.5 µM, Pol 1 µM; DMSO ~43%
[3] = tested on: P. aeruginosa PA103; format: in vivo, Galleria mellonella
[4] = tested on: T3SS gene expression in P. aeruginosa PA103 and PAO1; experiment: Quantitative RT-PCR of T3SS gene expression; format: cell-based, Pseudomonas aeruginosa; conditions: Bis 10 µM, Zp 2.5 µM, Pol 1 µM in LB
[5] = molecular target: T1, ExoU (Pseudomonas aeruginosa, UniProt O34208); experiment: nanoDSF thermal stability of ExoU; format: binding; conditions: 10 µM compound
Procedure: Thermal stability of recombinant His₆-ExoU was assessed using a Prometheus NT.48 instrument (NanoTemper Technologies, Cambridge, UK) without extrinsic dyes, as these were not compatible with the use of PIP2. ExoU was diluted to 5 µM in 20 mM TrisHCl-HCl (pH 8.2), 100 mM NaCl, and 10% (v/v) glycerol. To evaluate ligand effects, four samples were prepared: ExoU alone, ExoU with 5 µM PIP2, ExoU with 10 µM inhibitor, and ExoU with both 5 µM PIP2 and 10 µM indicated inhibitor, each maintaining 1% (v/v) DMSO. Ten microliters of each mixture were loaded into highsensitivity-sensitivity nanoDSF glass capillaries and subjected to a thermal ramp from 25 °C to 95 °C at 1 °C/min. Intrinsic tryptophan fluorescence emission at 330 nm and 350 nm was recorded continuously, and the ratio F₃₅₀/F₃₃₀ was plotted against temperature. Melting temperatures (Tₘ) were determined from the inflection point of the first derivative of the fluorescence ratio using the manufacturer’s analysis software. All conditions were measured in triplicate. Changes in melting temperature (Δ Tₘ) compared to DMSO, or DMSO PIP2 controls were plotted using GraphPad.
Supplementary file ppat.1014474.s008.tif: S7 Fig Nano differential scanning fluorimetry (nanoDSF) analysis of ExoU thermal stability in the presence of compounds. Raw melt curves of recombinant ExoU are shown in the absence (left) and presence (right) of PIP2 (5 µM) from three independent (A-C) experiments. Compounds were tested at 10 µM. Intrinsic tryptophan fluorescence emission was continuously monitored at 330 nm and 350 nm as the temperature increased, and the fluorescence ratio (F₃₅₀/F₃₃₀) was plotted against temperature. Melting temperatures (Tₘ) were calculated from the average inflection point of the first derivative of the fluorescence ratio using the manufacturer’s analysis software. (TIF)

[6] = molecular target: T1, ExoU; experiment: ExoU in vitro phospholipase assay (real-time, dose-response); format: biochemical
[7] = molecular target: T1, ExoU; experiment: BS3 cross-linking and SDS-PAGE of ExoU oligomerisation; conditions: 10 µM inhibitor
Procedure: Four reaction mixtures (50 µL each) were prepared at room temperature: ExoU alone; ExoU with 5 µM PIP2; ExoU with 10 µM inhibitor; and ExoU with both 5 µM PIP2 and 10 µM inhibitor for 30 minutes at 25 °C. […] Reactions were quenched by addition of Tris HCl pH 7.4 to 50 mM and a further 15 min incubation at room temperature. […] Membranes were blocked in TBST containing 5% (w/v) non-fat milk for 1 h, then incubated overnight at 4 °C with mouse anti-His monoclonal antibody (Bio Rad; 1:2,000). After washing in TBST, membranes were incubated with HRP-conjugated goat anti-mouse IgG for 1 h at room temperature. Signal was detected by chemiluminescence with X ray film exposure, and band patterns were analysed to determine the distribution of monomeric and oligomeric ExoU species under each condition.

[8] = tested on: EGFP-tagged ExoU (S142A); experiment: EGFP-ExoU (S142A) abundance and lysosome colocalisation in transfected HEK293T cells
[9] = molecular target: T2, PLA2G4C (Homo sapiens, UniProt Q9UP65); experiment: Human phospholipase assay, thio-BGPC substrate; format: biochemical; conditions: 10 µM, S4 Fig
T2 construct: 6xHis (N); made in house; host or cells: E. coli C43(DE3)
T2 sequence (Q9UP65 1-541): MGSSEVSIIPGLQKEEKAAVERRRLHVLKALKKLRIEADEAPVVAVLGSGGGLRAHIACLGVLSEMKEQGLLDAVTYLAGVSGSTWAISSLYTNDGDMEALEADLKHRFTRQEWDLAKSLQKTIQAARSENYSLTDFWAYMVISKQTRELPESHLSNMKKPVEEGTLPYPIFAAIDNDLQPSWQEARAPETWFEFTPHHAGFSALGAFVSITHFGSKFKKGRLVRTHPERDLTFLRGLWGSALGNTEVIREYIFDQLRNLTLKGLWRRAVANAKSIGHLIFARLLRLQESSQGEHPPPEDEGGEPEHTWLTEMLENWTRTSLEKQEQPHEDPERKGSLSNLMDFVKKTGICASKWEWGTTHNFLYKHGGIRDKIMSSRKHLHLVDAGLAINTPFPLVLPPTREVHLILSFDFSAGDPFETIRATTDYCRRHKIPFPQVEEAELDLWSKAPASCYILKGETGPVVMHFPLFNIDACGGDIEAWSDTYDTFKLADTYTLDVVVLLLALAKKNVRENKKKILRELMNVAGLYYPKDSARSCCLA
Procedure: Recombinant human PLA2G7 and PLA2G4C activities were measured in 96well, -well, UVtransparent microplates (Corning) in a final volume of 50 µL per well. Reactions were carried out in 20 mM […] TrisHCl-HCl (pH 8.2), 100 mM NaCl, and 0.01% Tween 20, with a 1% (v/v) final DMSO concentration. For PLA2G7, substrate cleavage was monitored using 0.6 mM 2-thio-PAF (Cambridge Bioscience Ltd), and for PLA2G4C, 0.6 mM arachidonoyl thio-bis-glycerophosphocholine (thioBGC-BGC; Cambridge Bioscience Ltd) was employed. In both assays, 1 mM DTNB (5,5′-dithiobis-(2nitrobenzoic acid), -nitrobenzoic acid), SigmaAldrich-Aldrich) served as the chromogenic reporter. Enzyme (500 nM final) was preequilibrated with buffer at 25 °C for 5 min before initiating-equilibrated with buffer at 25 °C for 5 min before initiating the reaction by substrate addition. Absorbance at 414 nm was recorded every minute for 1 h on a Hidex plate reader.
(B) ExoU activity was assessed using arachidonoyl thio-phosphatidylcholine (thio-PC) in the presence of 10 µM of the indicated compound. […] (TIF)

[10] = molecular target: T3, human PLA2G7 (Homo sapiens, UniProt Q13093); experiment: Human phospholipase assay, 2-thio-PAF substrate; format: biochemical; conditions: 10 µM, S4 Fig
T3 construct: 6xHis (N); made in house; host or cells: E. coli C43(DE3)
T3 sequence (Q13093 22-441): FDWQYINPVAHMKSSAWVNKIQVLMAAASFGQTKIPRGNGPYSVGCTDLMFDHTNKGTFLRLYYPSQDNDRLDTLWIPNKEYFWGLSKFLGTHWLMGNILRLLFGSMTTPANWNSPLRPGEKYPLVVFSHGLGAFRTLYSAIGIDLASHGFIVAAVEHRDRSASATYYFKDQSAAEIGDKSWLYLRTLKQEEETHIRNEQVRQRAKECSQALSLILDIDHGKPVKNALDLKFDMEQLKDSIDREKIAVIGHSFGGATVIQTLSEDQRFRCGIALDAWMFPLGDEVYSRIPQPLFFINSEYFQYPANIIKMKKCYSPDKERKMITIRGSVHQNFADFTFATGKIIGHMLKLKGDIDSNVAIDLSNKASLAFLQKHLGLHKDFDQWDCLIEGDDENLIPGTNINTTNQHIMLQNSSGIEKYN

## O=C([O-])CC(O)(CC(=O)[O-])C(=O)[O-].O=C([O-])CC(O)(CC(=O)[O-])C(=O)[O-].[Bi+3].[K+].[K+].[K+] [Bis, bismuth subcitrate]
[1]
  Histology (H&E) of infected corneas: partial epithelial preservation and less stromal damage
[1]; Bis 5 µM, Zp 2.5 µM, Pol 1 µM topical
  Corneal opacity: performing slightly better than Zp
[2]
  Mean live-cell area relative to non-infected controls: 55.8%
[3]; PA103 1 × 10⁵ CFU, Bis 0.1 mg/g, Zp 0.01 mg/g, Pol 0.004 mg/g, 40 h
  Clinical score: mean±SD (health score 0-9): 4.17 ± 3.89
[3]; PA103-infected larvae, PA103 alone 16
  Median survival: 16 h
[3]; in a subset of larvae
  Delay of disease progression: approximately 8 h
[4]
  Expression of exsA, pcrV, exoU in PA103, or exsA, pcrV, exoS in PAO1: no significant changes
[5]; absence of PIP2
  Decrease of ExoU Tm: no measurable effect
[5]; with 5 µM PIP2
  Decrease of ExoU Tm: ~ 2 °C
[6]; Fig 1B dose-response, PIP2 and ubiquitin present, read-out: IC50 for ExoU inhibition in vitro
  IC50: 12.8 ± 1 µM
[6]; Fig 2C dose-response phospholipase assays, read-out: IC50 of bismuth-based ExoU inhibitors and subcitrate alone
  IC50: 9.9 µM
[6]; Fig 3C, three-parameter fit, read-out: IC50 for ExoU inhibition, individual inhibitors or equimolar combinations
  IC50: 13.3 ± 2.9 µM
[7]; with PIP2
  Migration of BS3 cross-linked ExoU on SDS-PAGE: single discrete high‐molecular‐weight band
[7]; without PIP2
  Migration of BS3 cross-linked ExoU on SDS-PAGE: did not alter this profile
[8]; 5 µM, 16 h
  Level of EGFP-tagged ExoU (S142A) by Western blot: substantially reduced
[8]; 16 h
  EGFP-ExoU (S142A) fluorescence and localisation (confocal): marked reduction; also recorded: redistributed into punctate structures that co-localised with RFP-LAMP1
[8]; 16 h compound treatment, DMSO r = 0.05
  Pearson's correlation coefficient r, ExoU-lysosome (RFP-LAMP1) colocalisation: 0.49
[9]
  Inhibition of PLA2G4C: no inhibition
[10]
  Inhibition of PLA2G7 enzymatic activity: neither Bis, Pol, nor Zp inhibited enzymatic activity
